# Results taken from article PMC6135396, “Repurposing antimalarial aminoquinolines and related compounds for treatment of retinal neovascularization” (PLoS ONE, 2018).
# Experiments:
# [1] = Hepatic microsome stability, mouse; assay type: in vitro ADME; details: liver microsomes, pH 7.4, single phase, read-out: Hepatic microsome stability T1/2
# Protocol: (§1) Hepatic microsomes stability assays were performed as reported before. […] After preincubation at 37°C for 10 min, enzyme reactions were initiated by adding 120 μL of NADPH-generating system (2 mM NADP^+, 10 mM glucose-6-phosphate, 0.4 U/ml glucose-6-phosphate dehydrogenase, and 5 mM MgCl2) in the presence of 100 mM potassium phosphate buffer (pH 7.4). The final concentration of each model compound used was 1 μM. The microsomal concentrations used were 1.0 mg/mL. Compounds were incubated in microsomes for 0, 5, 15, 30 and 60 min. The reactions were stopped by the addition of ice cold ACN and the reaction mixtures were centrifuged at 10,000g for 10 min before the supernatant was removed for analysis.
# (§2) Except for the primary assay in the HTS campaign, all experiments were repeated at least three times. Results are expressed as mean ± SEM. The Mann-Whitney test was used to determine statistical significance of the densitometry data of Western blot analysis. Unpaired two-tailed Student’s t-test was performed for the significance of the results of ELISA and in vitro tubule formation assay. ANOVA was used to determine the significance in vivo CNV models using the Tukey post-hoc test for multiple comparisons. […] T1/2 was calculated using the best fit curve resulting from non-linear (human) or linear (mouse and rat) regression analyses using Prism 7.
# Plasma stability, mouse = assay type: in vitro ADME
# [2] = Hepatic microsome stability, rat; assay type: in vitro ADME; details: liver microsomes, pH 7.4, single phase, read-out: Hepatic microsome stability T1/2
# Protocol: as §1, §2
# APJ = target: T1, APJ (Homo sapiens, UniProt P35414); assay: APJ β-arrestin recruitment assay (PathHunter, CHO-K1-APJ); assay type: cell-based; design: β-galactosidase enzyme fragment (enzyme fragment complementation construct); host or cells: CHO-K1 (CHO-K1-APJ, PathHunter)
# T1 sequence (P35414 1-380): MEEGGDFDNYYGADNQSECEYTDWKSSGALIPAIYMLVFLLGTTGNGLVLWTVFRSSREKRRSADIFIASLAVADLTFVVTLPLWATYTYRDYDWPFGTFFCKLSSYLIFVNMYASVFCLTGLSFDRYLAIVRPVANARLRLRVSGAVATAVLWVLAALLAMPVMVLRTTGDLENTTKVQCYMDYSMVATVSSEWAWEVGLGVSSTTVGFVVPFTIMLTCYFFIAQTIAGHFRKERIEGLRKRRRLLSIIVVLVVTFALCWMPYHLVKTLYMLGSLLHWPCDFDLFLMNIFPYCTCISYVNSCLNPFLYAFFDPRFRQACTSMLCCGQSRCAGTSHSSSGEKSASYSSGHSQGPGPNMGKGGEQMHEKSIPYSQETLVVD
# Protocol: PathHunter™ GPCR Arrestin and cAMP Hunter™ cell lines (DiscoveRx Corp., Fremont, CA) were used to assay G-protein-dependent signaling and β-arrestin recruitment to APJ. CHO-K1 cells stably expressing APJ (CHO-K1-APJ) or AT1 (CHO-K1-AT1) with β-arrestin/β-galactosidase enzyme fragment complementation constructs were maintained in HAM's F-12 medium (Hyclone, Logan, UT) supplemented with 10% FBS, 1X Penicillin-Streptomycin-Glutamine (Invitrogen; Carlsbad, CA), 300 μg/ml hygromycin (EMD Biosciences, San Diego, CA), and 800 μg/ml Geneticin (Cellgro, Manassas, VA). Primary Human Retinal Microvascular Endothelial Cells (HRECs) were purchased from Cell Systems (Kirkland, WA) and maintained in Complete Classic Medium with CultureBoost-R™ (Cell Systems). Parent CHO-K1 cells were obtained from ATCC and maintained in HAM’s F-12 medium supplemented with 10% FBS, and1X Penicillin-Streptomycin-Glutamine (Invitrogen; Carlsbad, CA). All cells were incubated at 37°C (5% CO2, 95% relative humidity) and maintained at less than 70% to 80% confluence (approximately 75,000 cells/cm^2). Cell heterologously expressing APJ or AT1 were not used after 10 passages. HRECs were not used in any experiments after five passages.
# CHO-K1 cells engineered to over-express APJ or AT1, and β-arrestin were removed from flasks using TrypLE Select (1X), no phenol red (Life Technologies, Grand Island, NY), centrifuged, and resuspended in CP2 Reagent (DiscoveRx, Fremont, CA). Cells were counted using a Countess Automated Cell Counter (Invitrogen, Carlsbad, CA) and 5,000 cells/well were plated in a 384-well tissue culture treated microplate (Corning, Corning, NY). All plates were incubated overnight at 37°C, 5% CO2 in a final volume of 25 μl/well. Following incubation, 5 μl of peptides (10-point concentrations) and controls prepared in ligand buffer (1X HBSS, 10 mM HEPES, 0.1% BSA) were added to cells and incubated at 37°C for 1.5 h. Using a Multidrop Combi Reagent Dispenser (Thermo Scientific), 12 μl of Detection Reagent (DiscoveRx) comprised of substrate and co-factors was added to all wells and incubated at room temperature in the dark for 1 h. Chemiluminescent signal was detected on an EnVision Multi-label plate reader (Perkin Elmer) using a counting time of 1 s/well. The robustness of data from each screening plate and run was monitored by Z’ and Signal Window calculation.
# [3] = Plasma-protein binding, human; assay type: in vitro ADME
# [4] = Hepatic microsome stability, human; assay type: in vitro ADME; details: liver microsomes, pH 7.4, terminal half-life of a two-phase exponential decay, read-out: Hepatic microsome stability T1/2
# Protocol: as §1, §2
# [5] = Plasma-protein binding, rat; assay type: in vitro ADME
# [6] = tested on: choroidal neovascularization (CNV) lesions; assay: Laser-induced CNV mouse model; assay type: in vivo; details: for CNV lesion volume vs vehicle control: two injections, choroidal flatmounts, 14 days post-laser
# [7] = Cytotoxicity, ATP-Lite, Fa2N-4 immortalized human hepatocytes; assay type: cell-based; details: Fa2N-4 immortalized human hepatocytes
# Protocol: Fa2N-4 immortalized human hepatocytes (Xenotech) or HREC cells were grown to subconfluency in wells of a 96-well plate and exposed to different concentrations of compounds for 24 h after which the cells were washed and the media and compounds replaced. The cells were returned to the incubator for another 24 h. The extent of cell death (cell lysis) was determined by ATP-Lite reagent (Perkin-Elmer).
structure (smiles),measurement,setting,value
"CCN(CC)Cc1cc(Nc2ccnc3cc(Cl)ccc23)ccc1O [AQ, amodiaquine]",half-life at 1 μM,[1],39.8 min
same,Plasma stability,"Plasma stability, mouse",36.1 % remaining at 3 hrs
same,half-life at 1 μM,[2],38.9 min
same,Antagonism of Ap13-mediated recruitment of β-arrestin,APJ,"neither AQ nor 1, 3, 4, 5, or 6 antagonized"
same,IC50,"APJ; secondary assay, Ap13-mediated β-arrestin recruitment",> 99 µM
same,Plasma-protein binding,[3]; 1 μM,88.2 % bound
same,Plasma-protein binding,[3]; 10 μM,83.8 % bound
same,half-life at 1 μM,[4],17 min
same,Plasma-protein binding,[5]; 1 μM,75.3 % bound
same,Plasma-protein binding,[5]; 10 μM,76.8 % bound
same,CNV lesion size by optical coherence tomography vs vehicle treated eyes,"[6]; 14 days post-laser injury, intravitreal AQ 5.0-50.0 μg",significantly smaller
same,CNV lesion volume vs vehicle control,[6]; AQ 5.0 μg intravitreal,not a statistically significant reduction
same,CNV lesion volume vs vehicle control,[6]; AQ 10.0 μg intravitreal,not a statistically significant reduction
same,CNV lesion volume vs vehicle control,[6]; AQ 25.0 μg intravitreal,statistically significant decrease
same,CNV lesion volume vs vehicle control,[6]; AQ 50.0 μg intravitreal,an even greater decrease
same,CNV lesion size in confocal images of agglutinin-stained choroidal flatmounts,[6]; intravitreal AQ,reduction in CNV lesion size at 10μg AQ and higher
same,IC50 at 48 h,"[7]; ATP-lite assay, Fa2-N4 cells",> 50 µM
same,CC50 at 48 h,"[7]; Fa2N-4 cells, read-out: Cytotoxicity LC50",> 50 µM
